Data on 16 molecules can be found in patent US8129371B2, “Thienopyrimidine and pyrazolopyrimidine compounds and their use as mTOR kinase and PI3 kinase inhibitors” (Wyeth LLC, priority 2007, dated 2012).

Read-outs that look alike come from different tables or passages of the source.

In one test the target is T1, Human mTOR (FLAG-TOR) (Homo sapiens, UniProt P42345).
T1 construct: FLAG
Put plainly: Human mTOR kinase assay with purified enzyme, DELFIA format. In kind it is biochemical. How it is done:
Enzymes are first diluted in kinase assay buffer (10 mM HEPES (pH 7.4), 50 mM NaCl, 50 mM β-glycerophosphate, 10 mM MnCl2, 0.5 mM DTT, 0.25 mM microcystin LR, and 100 mg/mL BSA). To each well, 12 μL of the diluted enzyme is mixed briefly with 0.5 μL test inhibitor or control vehicle dimethylsulfoxide (DMSO). […] The reaction plate is incubated for 2 hours (linear at 1-6 hours) at room temperature with gentle shaking and then terminated by adding 25 μL Stop buffer (20 mM HEPES (pH 7.4), 20 mM EDTA, 20 mM EGTA). […] The DELFIA Assay buffer and Enhancement solution can be purchased from PerkinElmer. 45 μL of the terminated kinase reaction mixture is transferred to a MaxiSorp plate (Nunc) containing 55 μL PBS. The His6-S6K is allowed to attach for 2 hours after which the wells are aspirated and washed once with PBS. 100 μL of DELFIA Assay buffer with 40 ng/mL Eu—P(T389)-S6K antibody is added. The antibody binding is continued for 1 hour with gentle agitation. The wells are then aspirated and washed 4 times with PBS containing 0.05% Tween-20 (PBST). 100 μL of DELFIA Enhancement solution is added to each well and the plates are read in a PerkinElmer Victor model plate reader. Data obtained is used to calculate enzymatic activity and enzyme inhibition by potential inhibitors.

The test system of another test is breast line MDA468. Nature of the test: In vitro cell culture growth assay (MTS), MDA468. The class given is cell-based. Conditions: Homo sapiens, 72 h, MDA468 cells, three days after drug treatment. How it is done: Human tumor cell lines used include prostate lines LNCap and PC3MM2, breast lines MDA468, MCF7, renal line HTB44 (A498), colon line HCT116, and ovarian line OVCAR3. Cells were plated in 96-well culture plates. One day following plating, the inhibitors were added to cells. Three days after drug treatment, viable cell densities were determined by metabolic conversion (by viable cells) of the dye MTS, a well-established cell proliferation assay. The assays were performed using an assay kit purchased from Promega Corp. (Madison, Wis.) following the protocol supplied with the kit. The MTS assay results were read in a 96-well plate reader by measuring absorbance at 490 nm. The effect of each treatment was calculated as percent of control growth relative to the vehicle-treated cells grown in the same culture plate.

Test [1] deals with T2, PI3K (Homo sapiens, UniProt P48736).
T2 construct: PI3 Kinase γ IC50; other: PI3 Kinase γ; other: PI3 Kinase γ isoform, fluorescence polarization
T2 sequence (P48736 whole entry, canonical isoform): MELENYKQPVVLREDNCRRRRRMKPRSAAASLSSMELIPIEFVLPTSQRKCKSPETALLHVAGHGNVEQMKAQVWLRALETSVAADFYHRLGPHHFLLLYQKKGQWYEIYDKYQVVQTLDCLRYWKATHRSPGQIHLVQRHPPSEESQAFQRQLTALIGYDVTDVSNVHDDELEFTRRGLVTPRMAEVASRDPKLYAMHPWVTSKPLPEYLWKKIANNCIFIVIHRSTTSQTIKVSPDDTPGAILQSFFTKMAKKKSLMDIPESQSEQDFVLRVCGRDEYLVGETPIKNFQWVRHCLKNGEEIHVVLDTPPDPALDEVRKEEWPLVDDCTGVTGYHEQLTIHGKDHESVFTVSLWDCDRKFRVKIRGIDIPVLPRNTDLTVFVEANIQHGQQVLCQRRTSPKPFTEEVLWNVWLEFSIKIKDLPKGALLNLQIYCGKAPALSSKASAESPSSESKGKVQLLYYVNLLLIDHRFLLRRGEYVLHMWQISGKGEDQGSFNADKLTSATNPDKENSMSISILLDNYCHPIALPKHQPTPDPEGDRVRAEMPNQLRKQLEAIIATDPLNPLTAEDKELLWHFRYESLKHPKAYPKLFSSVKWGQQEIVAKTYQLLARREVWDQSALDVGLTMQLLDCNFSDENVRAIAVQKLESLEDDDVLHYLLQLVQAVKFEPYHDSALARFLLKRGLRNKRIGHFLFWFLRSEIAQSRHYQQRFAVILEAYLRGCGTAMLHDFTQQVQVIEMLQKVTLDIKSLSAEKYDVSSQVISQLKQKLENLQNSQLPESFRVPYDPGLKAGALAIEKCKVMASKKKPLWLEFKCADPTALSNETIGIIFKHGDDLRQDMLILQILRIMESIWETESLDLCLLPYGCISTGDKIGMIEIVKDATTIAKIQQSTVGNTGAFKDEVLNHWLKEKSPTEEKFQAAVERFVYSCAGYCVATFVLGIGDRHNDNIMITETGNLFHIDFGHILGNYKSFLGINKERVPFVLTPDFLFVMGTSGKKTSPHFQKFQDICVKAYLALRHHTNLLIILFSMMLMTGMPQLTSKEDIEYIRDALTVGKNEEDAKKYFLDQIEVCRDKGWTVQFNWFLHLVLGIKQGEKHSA
Nature of the test: Fluorescence polarization assay for PI3K. In kind it is biochemical. Conditions: read-out: PI3 Kinase γ IC50. How it is done: (§1) This assay is used to determine the IC50 of compounds of the present invention as it identifies inhibitors of PI3 kinase by measuring inhibition.
(§2) The assay is run by placing 5 μL of diluted enzyme per well, then 5 μL of diluted compound (or 9.5 μL enzyme then 0.5 μL compound in DMSO) is added and mixed. Then, 10 μL substrate is added to start the reaction. The samples are incubated 30-60 minutes, then the reaction is stopped by adding 20 μL stop/detector mix. PI3K is diluted with reaction buffer (e.g., 5 μL or 7.5 μL PI3K into 620 μL reaction buffer), and 5 μL of diluted enzyme is used per well. 5 μL reaction buffer or drug diluted in buffer (e.g., 4 μL/100 so final DMSO is 1% in reaction) is added to each. Pipetting up and down mixes the samples. Alternatively, the enzyme can be diluted to 1215 μL. In this case 9.8 μL is added per well and 0.2 μL compound is added in DMSO. To prepare 1 mL of substrate solution, 955 μL reaction buffer, 40 μL PIP2, and 2.5 μL ATP are mixed. 10 μL of substrate is added to each well to start the reaction.
(§3) Stop/detector mix is prepared by mixing 4 μL Red detector and 1.6 μL or 2.0 μL GST-GRP with 1 mL Stop buffer, which results in 10 nM probe and 70 nM GST-GRP). 20 μL of the stop/detector mix is added to each well to stop the reaction. The plates are read after 30-90 minutes keeping the red probe solutions dark. For the zero time point, stop/detector mix is added to the enzyme just before adding substrate. For an extra control, stop/detector mix is added to buffer (no enzyme) and substrate or to just buffer (no substrate). […] Plates are read on machines with filters for Tamra. The units are mP with no enzyme controls reading app 190-220 mP units. Fully active enzyme reduces fluorescence polarization down to 70-100 mP after 30 minutes.
(In general: Fluorescence polarisation rises when a labelled molecule tumbles more slowly, as on binding a larger partner.)

In test [2] the target is T3, PI3K (Homo sapiens, UniProt P42336).
T3 construct: PI3 Kinase α IC50; other: PI3 Kinase α; other: PI3 Kinase α isoform, fluorescence polarization
T3 sequence (P42336 whole entry, canonical isoform): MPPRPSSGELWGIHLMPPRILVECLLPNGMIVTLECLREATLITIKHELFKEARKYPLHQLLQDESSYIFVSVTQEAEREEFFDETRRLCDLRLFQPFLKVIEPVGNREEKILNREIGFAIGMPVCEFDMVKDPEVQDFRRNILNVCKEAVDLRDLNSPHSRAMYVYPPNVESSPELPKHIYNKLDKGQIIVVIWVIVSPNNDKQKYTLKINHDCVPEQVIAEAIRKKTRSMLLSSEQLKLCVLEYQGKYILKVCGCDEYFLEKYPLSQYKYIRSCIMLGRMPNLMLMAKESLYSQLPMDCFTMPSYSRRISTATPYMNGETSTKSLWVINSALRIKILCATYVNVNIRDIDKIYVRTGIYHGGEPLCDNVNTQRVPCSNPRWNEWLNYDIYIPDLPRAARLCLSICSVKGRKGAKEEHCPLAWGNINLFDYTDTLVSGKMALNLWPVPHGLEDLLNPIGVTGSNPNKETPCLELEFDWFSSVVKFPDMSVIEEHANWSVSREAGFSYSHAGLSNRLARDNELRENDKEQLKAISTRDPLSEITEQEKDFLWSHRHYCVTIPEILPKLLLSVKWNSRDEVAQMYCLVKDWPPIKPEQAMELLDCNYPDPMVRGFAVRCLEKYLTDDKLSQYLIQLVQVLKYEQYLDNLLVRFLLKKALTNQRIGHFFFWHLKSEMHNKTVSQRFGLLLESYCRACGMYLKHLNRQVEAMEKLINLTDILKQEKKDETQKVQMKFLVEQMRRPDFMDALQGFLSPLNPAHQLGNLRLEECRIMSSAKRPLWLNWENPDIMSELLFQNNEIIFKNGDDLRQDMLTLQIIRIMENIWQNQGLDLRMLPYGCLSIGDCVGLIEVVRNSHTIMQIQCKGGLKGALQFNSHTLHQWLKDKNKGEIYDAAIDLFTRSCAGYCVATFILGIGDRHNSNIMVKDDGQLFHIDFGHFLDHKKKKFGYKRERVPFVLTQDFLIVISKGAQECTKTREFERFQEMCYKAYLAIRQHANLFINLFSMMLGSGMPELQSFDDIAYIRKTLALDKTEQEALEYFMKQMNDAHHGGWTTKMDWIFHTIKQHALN
Nature of the test: Fluorescence polarization assay for PI3K. The class given is biochemical. The following applies: read-out: PI3 Kinase α IC50. How it is done: as §1, §2, §3

Setting [3] is: purified human mTOR enzyme, DELFIA format.
Setting [4] is: PI3 Kinase γ isoform, fluorescence polarization.
Where [5] appears, read: PI3 Kinase α isoform, fluorescence polarization.

On to `CS(=O)(=O)N1CCN(Cc2cc3nc(-c4ccc(NC(=O)Nc5cccnc5)cc4)nc(N4CC5CCC(C4)O5)c3s2)CC1` [Example 433, 1-{4-[6-{[4-(methylsulfonyl)piperazin-1-yl]methyl}-4-(8-oxa-3-azabicyclo[3.2.1]oct-3-yl)thieno[3,2-d]pyrimidin-2-yl]phenyl}-3-pyridin-3-ylurea], for which the IC50 (usually the point on the concentration scale where inhibition reaches its midpoint) against Human mTOR (FLAG-TOR) (setting [3]) is 0.56 nM; in the test on breast line MDA468, 60 nM; at PI3K [1] (setting [4]) it was 286 nM; at PI3K [2] (setting [5]), 12 nM.
On to “N-{4-[({4-[1-methyl-4-(8-oxa-3-azabicyclo[3.2.1]oct-3-yl)-1H-pyrazolo[3,4-d]pyrimidin-6-yl]phenyl}carbamoyl)amino]phenyl}acetamide [Example 259]”, for which the IC50 at Human mTOR (FLAG-TOR) came to 2.4 nM; on PI3K [1] (PI3 Kinase γ) it was 2720 nM; on PI3K [2] (PI3 Kinase α), 1050 nM.
The matching figures for `CNC(=O)Nc1ccc(-c2nc(N3CC4CCC(C3)O4)c3cnn(C4CCC(O)CC4)c3n2)cc1` (centres unmarked) [Example 64, 1-{4-[1-(4-hydroxycyclohexyl)-4-(8-oxa-3-azabicyclo[3.2.1]oct-3-yl)-1H-pyrazolo[3,4-d]pyrimidin-6-yl]phenyl}-3-methylurea]: 0.21 nM, 5000 nM and 1310 nM.
The matching figures for `CNC(=O)Nc1ccc(-c2nc(N3CC4CCC(C3)O4)c3cnn(C4CCC(O)CC4)c3n2)cc1` (centres unmarked) [Example 108, 1-(4-(4-(8-oxa-3-azabicyclo[3.2.1]octan-3-yl)-1-((1r,4r)-4-hydroxycyclohexyl)-1H-pyrazolo[3,4-d]pyrimidin-6-yl)phenyl)-3-methylurea]: 0.24 nM, more than 10000 nM and 882 nM.
Taken in the same sequence, the figures for `O=C(Nc1ccncc1)Nc1ccc(-c2nc(N3CC4CCC(C3)O4)c3cnn(CC(F)(F)F)c3n2)cc1` [Example 5, 1-{4-[4-(8-oxa-3-azabicyclo[3.2.1]oct-3-yl)-1-(2,2,2-trifluoroethyl)-1H-pyrazolo[3,4-d]pyrimidin-6-yl]phenyl}-3-pyridin-4-ylurea] were 0.19 nM, 1030 nM and 168 nM.
For `O=C(Nc1ccccc1)Nc1ccc(-c2nc(N3CC4CCC(C3)O4)c3sccc3n2)cc1` [Example 411, 1-{4-[4-(8-oxa-3-azabicyclo[3.2.1]oct-3-yl)thieno[3,2-d]pyrimidin-2-yl]phenyl}-3-phenylurea], the IC50 on Human mTOR (FLAG-TOR) (setting [3]) was determined as 1.3 nM; in the test on breast line MDA468, 380 nM; at PI3K [1] (setting [4]) it was 2190 nM; on PI3K [2] (setting [5]), 82 nM.
The matching figures for `CNC(=O)Nc1ccc(-c2nc(N3CC4CCC(C3)O4)c3sc(CN4CCN(C)CC4)cc3n2)cc1` [Example 423, 1-methyl-3-(4-{6-[(4-methylpiperazin-1-yl)methyl]-4-(8-oxa-3-azabicyclo[3.2.1]oct-3-yl)thieno[3,2-d]pyrimidin-2-yl}phenyl)urea]: 19.5 nM, 1000 nM, 5720 nM and 322 nM.
Turning to `O=C(Nc1ccncc1)Nc1ccc(-c2nc(N3CC4CCC(C3)O4)c3cnn(CC(F)(F)F)c3n2)cc1` [Example 104, 1-{4-[4-(8-oxa-3-azabicyclo[3.2.1]oct-3-yl)-1-(2,2,2-trifluoroethyl)-1H-pyrazolo[3,4-d]pyrimidin-6-yl]phenyl}-3-pyridin-4-ylurea], the figures for the IC50 at Human mTOR (FLAG-TOR), on PI3K [1] (PI3 Kinase γ) and at PI3K [2] (PI3 Kinase α) were 0.16 nM, 695 nM and 201 nM, respectively.
As for `CNC(=O)Nc1ccc(-c2nc(N3CC4CCC(C3)O4)c3cnn(C4CCC(=O)CC4)c3n2)cc1` [Example 63, 1-methyl-3-{4-[4-(8-oxa-3-azabicyclo[3.2.1]oct-3-yl)-1-(4-oxocyclohexyl)-1H-pyrazolo[3,4-d]pyrimidin-6-yl]phenyl}urea], the IC50 against Human mTOR (FLAG-TOR) is 0.23 nM; on PI3K [1] (PI3 Kinase γ) it was more than 10000 nM.
Take `CCNC(=O)Nc1ccc(-c2nc(N3CC4CCC(C3)O4)c3cnn(C4CCC(OC)CC4)c3n2)cc1` (centres unmarked) [Example 301, 1-ethyl-3-{4-[1-(4-methoxycyclohexyl)-4-(8-oxa-3-azabicyclo[3.2.1]oct-3-yl)-1H-pyrazolo[3,4-d]pyrimidin-6-yl]phenyl}urea]: the IC50 against Human mTOR (FLAG-TOR) (setting [3]) is 0.335 nM; at PI3K [1] (setting [4]), more than 10000 nM; at PI3K [2] (setting [5]) it was 2030 nM.
On to “N~2~,N~2~-dimethyl-N-{4-[({4-[1-methyl-4-(8-oxa-3-azabicyclo[3.2.1]oct-3-yl)-1H-pyrazolo[3,4-d]pyrimidin-6-yl]phenyl}carbamoyl)amino]phenyl}glycinamide [Example 258]”, for which the IC50 against Human mTOR (FLAG-TOR) was determined as 3.95 nM; on PI3K [1] (PI3 Kinase γ), 1410 nM; on PI3K [2] (PI3 Kinase α), 346 nM.
Consider `Nc1ccc(-c2nc(N3CC4CCC(C3)O4)c3sccc3n2)cc1` [Example 414, 4-[4-(8-oxa-3-azabicyclo[3.2.1]oct-3-yl)thieno[3,2-d]pyrimidin-2-yl]aniline], for which the IC50 against Human mTOR (FLAG-TOR) (setting [3]) was 100 nM; in the test on breast line MDA468, 30000 nM; at PI3K [1] (setting [4]) it was more than 10000 nM.
In the case of `CNC(=O)Nc1ccc(-c2nc(N3CC4CCC(C3)O4)c3cnn([C@H]4CC[C@@H](O)CC4)c3n2)cc1` [Example 109, 1-(4-(4-(8-oxa-3-azabicyclo[3.2.1]octan-3-yl)-1-((1s,4s)-4-hydroxycyclohexyl)-1H-pyrazolo[3,4-d]pyrimidin-6-yl)phenyl)-3-methylurea], the results for the IC50 against Human mTOR (FLAG-TOR), at PI3K [1] (PI3 Kinase γ) and at PI3K [2] (PI3 Kinase α) were 0.3 nM, more than 10000 nM and 227 nM, respectively.
Taken in the same sequence, the figures for `CNC(=O)Nc1ccc(-c2nc(N3CC4CCC(C3)O4)c3cnn(C4CCC5(CC4)OCCO5)c3n2)cc1` [Example 62, 1-{4-[1-(1,4-dioxaspiro[4.5]dec-8-yl)-4-(8-oxa-3-azabicyclo[3.2.1]oct-3-yl)-1H-pyrazolo[3,4-d]pyrimidin-6-yl]phenyl}-3-methylurea] were 0.16 nM, more than 10000 nM and 2010 nM.
As for `CNC(=O)Nc1ccc(-c2nc(N3CC4CCC(C3)O4)c3cnn(C4CCC(N5CCN(C)CC5)CC4)c3n2)cc1` (centres unmarked) [Example 329, 1-methyl-3-(4-{1-[4-(4-methylpiperazin-1-yl)cyclohexyl]-4-(8-oxa-3-azabicyclo[3.2.1]oct-3-yl)-1H-pyrazolo[3,4-d]pyrimidin-6-yl}phenyl)urea], the IC50 against Human mTOR (FLAG-TOR) (setting [3]) was found to be 1.75 nM; on PI3K [1] (setting [4]), 4350 nM; on PI3K [2] (setting [5]), 357 nM.
Regarding `CC(C)C(=O)N1CCC(n2ncc3c(N4CC5CCC(C4)O5)nc(-c4ccc(N)cc4)nc32)CC1` [Example 80, 4-[1-(1-isobutyrylpiperidin-4-yl)-4-(8-oxa-3-azabicyclo[3.2.1]oct-3-yl)-1H-pyrazolo[3,4-d]pyrimidin-6-yl]aniline], the IC50 against Human mTOR (FLAG-TOR) is 100 nM; on PI3K [1] (PI3 Kinase γ), more than 10000 nM; on PI3K [2] (PI3 Kinase α) it was more than 10000 nM.
